Source: the NIST ThermoML archive (doi:10.1016/j.jct.2011.03.013)
Where “and” joins values, the source holds several entries; their conditions need not be identical. Equal entries are not always repeated.

Details: Crystal; for vapor or sublimation pressure: Calculated from knudsen effusion weight loss; for molar enthalpy of sublimation: 298.15 K, Drop Calorimetry

N#Cc1cccc2ccccc12 [1-cyanonaphthalene]
Details | molar enthalpy of sublimation [kJ/mol] | vapor or sublimation pressure
– | 88.1 | –
289.1 K | – | 0.00012 kPa and 0.000125 kPa
291.12 K | – | 0.000163 kPa and 0.000156 kPa and 0.000157 kPa
293.12 K | – | 0.000208 kPa and 0.0002 kPa and 0.000196 kPa
295.12 K | – | 0.000275 kPa and 0.000251 kPa and 0.000265 kPa
297.13 K | – | 0.000324 kPa and 0.000319 kPa
299.13 K | – | 0.000426 kPa and 0.000418 kPa and 0.000416 kPa
301.12 K | – | 0.000535 kPa and 0.000532 kPa and 0.000527 kPa
303.3 K | – | 0.000724 kPa and 0.00069 kPa and 0.000686 kPa
305.12 K | – | 0.000843 kPa and 0.000849 kPa and 0.00084 kPa
307 K | – | 0.001033 kPa and 0.001044 kPa and 0.001034 kPa

N#Cc1ccc2ccccc2c1 [2-naphthalenecarbonitrile]
Details | molar enthalpy of sublimation [kJ/mol] | vapor or sublimation pressure
– | 90.7 | –
296.18 K | – | 9e-05 kPa and 9.2e-05 kPa and 9.1e-05 kPa
298.11 K | – | 0.000115 kPa and 0.000117 kPa and 0.000116 kPa
300.19 K | – | 0.000159 kPa and 0.000153 kPa and 0.000154 kPa
302.18 K | – | 0.000196 kPa and 0.000201 kPa and 0.000197 kPa
304.1 K | – | 0.000245 kPa and 0.000244 kPa
306.18 K | – | 0.000319 kPa and 0.000303 kPa and 0.000304 kPa
308.15 K | – | 0.000391 kPa and 0.000388 kPa and 0.000396 kPa
310.09 K | – | 0.000487 kPa and 0.000485 kPa and 0.000491 kPa
312.19 K | – | 0.000636 kPa and 0.000617 kPa and 0.000618 kPa
314.16 K | – | 0.000783 kPa and 0.000762 kPa and 0.000803 kPa
316.1 K | – | 0.000948 kPa and 0.000947 kPa and 0.000994 kPa
